Consider 36 molecules from patent US20070021434A1, “NON-NUCLEOSIDE ANTI-HEPACIVIRUS AGENTS AND USES THEREOF” (Migenix Inc., priority 2005, published 2007).

For the assay, the target named is HCV RdRp (NS5B) (UniProt P26663). It is filed as biochemical, hepatitis C virus.
Sequence of HCV RdRp (NS5B) (P26663 whole entry, looked up): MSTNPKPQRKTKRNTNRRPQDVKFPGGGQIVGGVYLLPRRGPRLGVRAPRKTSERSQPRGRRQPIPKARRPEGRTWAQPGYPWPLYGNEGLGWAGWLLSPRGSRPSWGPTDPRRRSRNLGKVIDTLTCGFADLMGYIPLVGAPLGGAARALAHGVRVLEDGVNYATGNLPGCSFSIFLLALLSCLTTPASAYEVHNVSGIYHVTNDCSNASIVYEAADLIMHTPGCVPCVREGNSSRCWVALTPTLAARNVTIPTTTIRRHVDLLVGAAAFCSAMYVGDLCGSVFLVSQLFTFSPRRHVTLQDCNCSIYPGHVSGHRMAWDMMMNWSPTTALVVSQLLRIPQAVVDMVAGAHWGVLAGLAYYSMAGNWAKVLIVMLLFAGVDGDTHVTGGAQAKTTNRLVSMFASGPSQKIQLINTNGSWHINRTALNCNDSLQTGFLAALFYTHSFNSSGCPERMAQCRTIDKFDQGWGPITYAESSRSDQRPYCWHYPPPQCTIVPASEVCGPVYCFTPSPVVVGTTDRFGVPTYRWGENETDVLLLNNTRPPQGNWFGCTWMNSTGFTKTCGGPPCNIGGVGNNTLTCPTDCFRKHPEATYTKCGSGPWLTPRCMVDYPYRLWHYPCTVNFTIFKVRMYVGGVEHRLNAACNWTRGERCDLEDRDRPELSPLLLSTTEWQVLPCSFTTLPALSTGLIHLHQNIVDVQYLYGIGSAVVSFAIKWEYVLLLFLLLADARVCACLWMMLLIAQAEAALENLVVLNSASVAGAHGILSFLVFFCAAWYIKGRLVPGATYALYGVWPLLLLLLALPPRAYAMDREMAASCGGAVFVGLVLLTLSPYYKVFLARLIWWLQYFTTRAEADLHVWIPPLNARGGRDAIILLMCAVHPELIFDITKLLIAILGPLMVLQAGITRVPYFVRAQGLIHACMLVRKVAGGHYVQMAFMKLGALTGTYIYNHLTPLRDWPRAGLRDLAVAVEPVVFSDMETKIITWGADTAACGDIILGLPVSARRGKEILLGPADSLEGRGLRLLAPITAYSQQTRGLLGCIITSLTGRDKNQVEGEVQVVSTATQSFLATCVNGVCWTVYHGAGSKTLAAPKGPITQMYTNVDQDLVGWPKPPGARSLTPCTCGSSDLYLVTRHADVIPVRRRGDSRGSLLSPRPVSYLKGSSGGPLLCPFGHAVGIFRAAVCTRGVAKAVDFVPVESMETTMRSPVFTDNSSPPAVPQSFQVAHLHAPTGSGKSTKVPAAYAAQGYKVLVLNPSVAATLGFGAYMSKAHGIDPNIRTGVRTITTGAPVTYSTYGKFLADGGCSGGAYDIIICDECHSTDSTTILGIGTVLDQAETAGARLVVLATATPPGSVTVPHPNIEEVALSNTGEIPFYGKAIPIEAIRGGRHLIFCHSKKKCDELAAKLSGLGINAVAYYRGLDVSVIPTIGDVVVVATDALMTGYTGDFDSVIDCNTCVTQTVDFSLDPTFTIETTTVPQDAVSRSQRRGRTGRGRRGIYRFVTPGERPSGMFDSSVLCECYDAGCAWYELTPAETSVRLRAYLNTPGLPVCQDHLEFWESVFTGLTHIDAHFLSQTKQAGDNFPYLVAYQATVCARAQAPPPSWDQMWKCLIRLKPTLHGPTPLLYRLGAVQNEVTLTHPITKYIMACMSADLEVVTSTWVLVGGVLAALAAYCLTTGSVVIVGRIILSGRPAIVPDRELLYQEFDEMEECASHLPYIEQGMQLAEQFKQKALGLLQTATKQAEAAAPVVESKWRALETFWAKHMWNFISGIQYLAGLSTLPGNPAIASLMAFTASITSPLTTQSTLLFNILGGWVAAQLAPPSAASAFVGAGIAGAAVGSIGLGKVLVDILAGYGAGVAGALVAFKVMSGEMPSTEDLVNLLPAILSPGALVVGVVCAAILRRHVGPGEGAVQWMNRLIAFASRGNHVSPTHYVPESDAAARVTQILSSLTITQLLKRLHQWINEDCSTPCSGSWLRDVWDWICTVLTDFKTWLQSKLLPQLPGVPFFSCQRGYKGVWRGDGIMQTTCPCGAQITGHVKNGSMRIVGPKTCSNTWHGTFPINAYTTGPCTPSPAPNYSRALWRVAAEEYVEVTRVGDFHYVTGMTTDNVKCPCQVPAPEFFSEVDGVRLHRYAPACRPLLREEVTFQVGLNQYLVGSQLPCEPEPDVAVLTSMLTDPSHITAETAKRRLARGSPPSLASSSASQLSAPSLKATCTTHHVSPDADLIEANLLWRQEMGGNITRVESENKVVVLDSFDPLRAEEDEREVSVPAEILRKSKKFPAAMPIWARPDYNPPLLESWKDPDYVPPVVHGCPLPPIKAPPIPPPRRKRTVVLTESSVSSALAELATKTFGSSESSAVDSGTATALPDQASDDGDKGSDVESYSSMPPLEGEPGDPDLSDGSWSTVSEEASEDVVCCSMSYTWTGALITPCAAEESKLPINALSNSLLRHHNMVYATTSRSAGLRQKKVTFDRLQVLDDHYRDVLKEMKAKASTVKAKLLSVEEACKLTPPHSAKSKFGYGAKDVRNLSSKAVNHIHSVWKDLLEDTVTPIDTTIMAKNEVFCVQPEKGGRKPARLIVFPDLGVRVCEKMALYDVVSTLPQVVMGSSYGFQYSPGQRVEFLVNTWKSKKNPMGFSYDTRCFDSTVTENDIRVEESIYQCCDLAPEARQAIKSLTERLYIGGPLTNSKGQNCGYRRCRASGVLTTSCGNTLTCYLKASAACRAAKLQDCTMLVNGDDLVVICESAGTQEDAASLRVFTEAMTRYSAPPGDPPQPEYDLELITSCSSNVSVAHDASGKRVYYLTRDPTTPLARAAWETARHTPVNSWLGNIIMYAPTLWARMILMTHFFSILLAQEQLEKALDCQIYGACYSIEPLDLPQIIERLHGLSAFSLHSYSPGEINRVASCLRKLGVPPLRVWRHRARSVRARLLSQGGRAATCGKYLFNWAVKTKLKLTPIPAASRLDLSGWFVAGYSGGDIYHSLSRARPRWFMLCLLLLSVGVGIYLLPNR
The IC50 is the concentration that inhibits the measured activity by half. As for `Cc1ccc(NC(=O)[C@H](CCCCN)NC(=O)Nc2ccc(OCc3cc(F)ccc3F)cc2)cc1` [Compound 286, (S)-6-AMINO-2-{3-[4-(2,5-DIFLUORO-BENZYLOXY)-PHENYL]-UREIDO}-HEXANOIC ACID P-TOLYLAMIDE], the IC50 was below 10 µM.
The value for `Cc1ccc(NC(=O)[C@H](CCCCN)NC(=O)Nc2ccc(OCc3c(F)cccc3F)cc2)cc1` [Compound 287, (S)-6-AMINO-2-{3-[4-(2,6-DIFLUORO-BENZYLOXY)-PHENYL]-UREIDO}-HEXANOIC ACID P-TOLYLAMIDE] was 10 to 50 µM; that for `Cc1ccc(NC(=O)[C@H](CCCCN)NC(=O)Nc2ccc(OCc3ccc(F)c(F)c3)cc2)cc1` [Compound 288, (S)-6-AMINO-2-{3-[4-(3,4-DIFLUORO-BENZYLOXY)-PHENYL]-UREIDO}-HEXANOIC ACID P-TOLYLAMIDE] was 10 to 50 µM.
Next, `CN1CCN(C(=O)[C@H](CCCCN)NC(=O)Nc2ccc(OCc3ccccc3)cc2)CC1` [Compound 289, (S)-1-[5-AMINO-1-(4-METHYL-PIPERAZINE-1-CARBONYL)-PENTYL]-3-(4-BENZYLOXY-PHENYL)-UREA]: above 50 µM.
The value for `NCCCC[C@H](NC(=O)Nc1ccc(OCc2ccccc2)cc1)C(=O)N1CCCCC1` [Compound 290, (S)-1-[5-AMINO-1-(PIPERIDINE-1-CARBONYL)-PENTYL]-3-(4-BENZYLOXY-PHENYL)-UREA] was above 50 µM.
Regarding `CC(C)NC(=O)[C@H](CCCCN)NC(=O)Nc1ccc(OCc2ccccc2)cc1` [Compound 291, (S)-6-AMINO-2-[3-(4-BENZYLOXY-PHENYL)-UREIDO]-HEXANOIC ACID ISOPROPYLAMIDE], the IC50 was above 50 µM.
The value for `Cc1ccc(NC(=O)C(CCCCN)NC(=O)Nc2ccc(CN(C)c3ccc(C)cc3)cc2)cc1` [Compound 292, (S)-6-AMINO-2-(3-{4-[(METHYL-P-TOLYL-AMINO)-METHYL]-PHENYL}-UREIDO)-HEXANOIC ACID P-TOLYLAMIDE] was above 50 µM; that for `Cc1ccc(NC(=O)CN(CCCCN)C(=O)OCC2c3ccccc3-c3ccccc32)cc1` [Compound 293, (4-AMINO-BUTYL)-(P-TOLYLCARBAMOYL-METHYL)-CARBAMIC ACID 9H-FLUOREN-9-YLMETHYL ESTER] was below 10 µM.
Next, `Cc1ccc(NC(=O)C(CCCCN)NC(=O)OCC2c3ccccc3-c3ccccc32)cn1` (stereo not drawn) [Compound 294, [5-AMINO-1-(6-METHYL-PYRIDIN-3-YLCARBAMOYL)-PENTYL]-CARBAMIC ACID 9H-FLUOREN-9-YLMETHYL ESTER]: above 50 µM.
The value for `Cc1cc2cc(NC(=O)CN(CCCCN)C(=O)OCC3c4ccccc4-c4ccccc43)ccc2[nH]1` [Compound 295, (4-AMINO-BUTYL)-[(2-METHYL-1H-INDOL-5-YLCARBAMOYL)-METHYL]-CARBAMIC ACID 9H-FLUOREN-9-YLMETHYL ESTER] was below 10 µM.
Molecule `Cc1cc2cc(NC(=O)[C@H](CCCNC(=O)CN)NC(=O)Nc3ccc(OCc4ccccc4)cc3)ccc2[nH]1` [Compound 296, (S)-5-(2-AMINO-ACETYLAMINO)-2-[3-(4-BENZYLOXY-PHENYL)-UREIDO]-PENTANOIC ACID (2-METHYL-1H-INDOL-5-YL)-AMIDE] registered an IC50 of 10 to 50 µM.
Next, `Cc1cc2cc(NC(=O)[C@H](CCCCNC(=O)CN)NC(=O)Nc3ccc4c(c3)Cc3ccccc3-4)ccc2[nH]1` [Compound 298, (S)-6-(2-AMINO-ACETYLAMINO)-2-[3-(9H-FLUOREN-2-YL)-UREIDO]-HEXANOIC ACID (2-METHYL-1H-INDOL-5-YL)-AMIDE]: above 50 µM; `Cc1ccc(NC(=O)[C@H](CCCCN)NC(=O)Nc2ccc(OCc3ccccn3)cc2)cc1` [Compound 299, (S)-6-AMINO-2-{3-[4-(PYRIDIN-2-YLMETHOXY)-PHENYL]-UREIDO}-HEXANOIC ACID P-TOLYLAMIDE]: 10 to 50 µM.
The value for `COc1ccc(NC(=O)N[C@@H](CCCCN)C(=O)Nc2ccc(C)cc2)cc1` [Compound 300, (S)-6-AMINO-2-[3-(4-METHOXY-PHENYL)-UREIDO]-HEXANOIC ACID P-TOLYLAMIDE] was above 50 µM; that for `Cc1ccc(COc2ccc(NC(=O)NC(CCCCN)C(=O)Nc3ccc(C)cc3)cc2)cc1` [Compound 301, (S)-6-AMINO-2-{3-[4-(4-METHYL-BENZYLOXY)-PHENYL]-UREIDO}-HEXANOIC ACID P-TOLYLAMIDE] was above 50 µM.
Regarding `NCCCC[C@H](NC(=O)Nc1ccc(OCc2ccccc2)cc1)C(=O)NCc1ccco1` [Compound 302, (S)-6-AMINO-2-[3-(4-BENZYLOXY-PHENYL)-UREIDO]-HEXANOIC ACID (FURAN-2-YLMETHYL)-AMIDE], the IC50 was above 50 µM.
`NCCCC[C@H](NC(=O)Nc1ccc(OCc2ccccc2)cc1)C(=O)Nc1nc2ccccc2s1` [Compound 303, (S)-6-AMINO-2-[3-(4-BENZYLOXY-PHENYL)-UREIDO]-HEXANOIC ACID BENZOTHIAZOL-2-YLAMIDE] came in with an IC50 above 50 µM.
Next, `NCc1ccc(CNC(=O)[C@@H](NC(=O)Nc2ccc(OCc3ccccc3)cc2)c2ccccc2)cc1` [Compound 304, (S)-N-(4-AMINOMETHYL-BENZYL)-2-[3-(4-BENZYLOXY-PHENYL)-UREIDO]-2-PHENYL-ACETAMIDE]: 10 to 50 µM.
The value for `NCc1ccc(NC(=O)C(NC(=O)Nc2ccc(OCc3ccccc3)cc2)c2ccccc2)cc1` [Compound 305, (S)-NR-(4-AMINOMETHYL-PHENYL)-2-[3-(4-BENZYLOXY-PHENYL)-UREIDO]-2-PHENYL-ACETAMIDE] was below 10 µM.
`NCCCC[C@H](NC(=O)Nc1ccc(OCc2ccccc2)cc1)C(=O)Nc1cccc2cc[nH]c12` [Compound 307, (S)-6-AMINO-2-[3-(4-BENZYLOXY-PHENYL)-UREIDO]-HEXANOIC ACID (1H-INDOL-7-YL)-AMIDE] yielded an IC50 of 10 to 50 µM.
The molecule `Cc1ccc(NC(=O)[C@H](CCCCO)NC(=O)Nc2ccc(OCc3ccccc3)cc2)cc1` [Compound 309, (S)-2-[3-(4-BENZYLOXY-PHENYL)-UREIDO]-6-HYDROXY-HEXANOIC ACID P-TOLYLAMIDE] returned an IC50 above 50 µM.
Next, `NCC(=O)Nc1ccccc1NC(=O)CNC(=O)OCC1c2ccccc2-c2ccccc21` [Compound 311, {[2-(2-AMINO-ACETYLAMINO)-PHENYLCARBAMOYL]-METHYL}-CARBAMIC ACID 9H-FLUOREN-9-YLMETHYL ESTER]: above 50 µM; `NCCC(=O)Nc1ccccc1NC(=O)CNC(=O)OCC1c2ccccc2-c2ccccc21` [Compound 312, {[2-(3-AMINO-PROPIONYLAMINO)-PHENYLCARBAMOYL]-METHYL}-CARBAMIC ACID 9H-FLUOREN-9-YLMETHYL ESTER]: above 50 µM.
Next, `NCCCCCCNC(=O)[C@@H](NC(=O)OCC1c2ccccc2-c2ccccc21)c1ccccc1` [Compound 313, (S)-[(6-AMINO-HEXYLCARBAMOYL)-PHENYL-METHYL]-CARBAMIC ACID 9H-FLUOREN-9-YLMETHYL ESTER]: 10 to 50 µM; `NCc1ccc(CNC(=O)[C@@H](NC(=O)OCC2c3ccccc3-c3ccccc32)c2ccccc2)cc1` [Compound 314, (S)-[(4-AMINOMETHYL-BENZYLCARBAMOYL)-PHENYL-METHYL]-CARBAMIC ACID 9H-FLUOREN-9-YLMETHYL ESTER]: 10 to 50 µM; `NCc1ccc(NC(=O)[C@@H](NC(=O)OCC2c3ccccc3-c3ccccc32)c2ccccc2)cc1` [Compound 315, (S)-[(4-AMINOMETHYL-PHENYLCARBAMOYL)-PHENYL-METHYL]-CARBAMIC ACID 9H-FLUOREN-9-YLMETHYL ESTER]: 10 to 50 µM.
Next, `Cc1cc(NC(=O)[C@H](CCCCN)NC(=O)Nc2ccc(OCc3ccccc3)cc2)n(-c2ccccc2)n1` [Compound 316, (S)-6-AMINO-2-[3-(4-BENZYLOXY-PHENYL)-UREIDO]-HEXANOIC ACID (5-METHYL-2-PHENYL-2H-PYRAZOL-3-YL)-AMIDE]: 10 to 50 µM; `NCCCC[C@H](NC(=O)Nc1ccc(OCc2ccccc2)cc1)C(=O)Nc1ccc(-n2ccnc2)cc1` [Compound 317, (S)-6-AMINO-2-[3-(4-BENZYLOXY-PHENYL)-UREIDO]-HEXANOIC ACID (4-IMIDAZOL-1-YL-PHENYL)-AMIDE]: above 50 µM.
Take `NCCCC[C@H](NC(=O)Nc1ccc(OCc2ccccc2)cc1)C(=O)N1CCOCC1` [Compound 318, (S)-l -[5-AMINO-1-(MORPHOLINE-4-CARBONYL)-PENTYL]-3-(4-BENZYLOXY-PHENYL)-UREA]: the IC50 was in the range of 10 to 50 µM.
`NCCCCCCNC(=O)C(NC(=O)Nc1ccc(OCc2ccccc2)cc1)c1ccccc1` [Compound 319, (S)-NR-(6-AMINO-HEXYL)-2-[3-(4-BENZYLOXY-PHENYL)-UREIDO]-2-PHENYL-ACETAMIDE] came in with a half-maximal inhibitory concentration (IC50) below 10 µM.
Next, `NCCCCCCNC(=O)C(NC(=O)Nc1ccc(OCc2ccccc2)cc1)c1ccccc1` [Compound 320, (R)-NR-(6-AMINO-HEXYL)-2-[3-(4-BENZYLOXY-PHENYL)-UREIDO]-2-PHENYL-ACETAMIDE]: below 10 µM.
Molecule `NCCCC[C@H](NC(=O)Nc1ccc(OCc2ccccc2)cc1)C(=O)Nc1cccc2c1CCC2` [Compound 321, (S)-6-AMINO-2-[3-(4-BENZYLOXY-PHENYL)-UREIDO]-HEXANOIC ACID INDAN-4-YLAMIDE] registered an IC50 below 10 µM.
Take `Cc1ccc(NC(=O)[C@H](CCCNC(=O)CN)NC(=O)Nc2ccc(OCc3ccccc3)cc2)cc1` [Compound 322, (S)-5-(2-AMINO-ACETYLAMINO)-2-[3-(4-BENZYLOXY-PHENYL)-UREIDO]-PENTANOIC ACID P-TOLYLAMIDE]: the IC50 fell in the range of 10 to 50 µM.
The value for `NCCCCN(CC(=O)Nc1ccc(C2CCCCC2)cc1)C(=O)Nc1ccc(OCc2ccccc2)cc1` [Compound 323, 2-[1-(4-AMINO-BUTYL)-3-(4-BENZYLOXY-PHENYL)-UREIDO]-N-(4-CYCLOHEXYL-PHENYL)-ACETAMIDE] was above 50 µM.
In the case of `CC(C)(C)OC(=O)NCC(=O)NCc1ccccc1NC(=O)CNC(=O)OCC1c2ccccc2-c2ccccc21` [Compound 325, ({2-[2-(9H-FLUOREN-9-YLMETHOXYCARBONYLAMINO)-ACETYLAMINO]-BENZYLCARBAMOYL}-METHYL)-CARBAMIC ACID TERT-BUTYL ESTER], the IC50 is above 50 µM.
Next, `Cc1ccc(NC(=O)C(CCCCN)NC(=O)COc2ccc(-c3ccccc3)cc2)cc1` [Compound 326, (S)-6-AMINO-2-[2-(BIPHENYL-4-YLOXY)-ACETYLAMINO]-HEXANOIC ACID P-TOLYLAMIDE]: above 50 µM.
